Laboratory results: patent US6602987B1, “Azobenzene derivatives as labeling agents and intermediates thereof” (Yeda Research and Development Co., Ltd., priority 1998, dated 2003)

Assays:
[1] = UV-Vis spectroscopic characteristics of free HABA and HABA-derivatives in buffer; assay type: physicochemical
Experimental: (§1) The degree of modification is calculated, after purification from side-products, on the basis of UV absorption at 356 nm in PBS, at 415 nm in basic environment, or at 504 nm after addition of excess of avidin in PBS.
(§2) Interaction of the HABAylated proteins with avidin or with anti-HABA antibodies is verified by following the characteristic shift of the absorption of the HABA chromophore. Table 4 depicts the spectroscopic characteristics in the spectra range of the HABA-derivatives as free molecules (not bound to proteins) upon interaction with avidin or specific affinity purified antibodies.

[2] = tested on: affinity purified anti-HABA antibodies; assay: Spectral shift of the HABA chromophore upon interaction with affinity purified anti-HABA antibodies; assay type: binding, rabbit
avidin = molecular target: T1, avidin (Gallus gallus, UniProt P02701); assay: Spectral shift of the HABA chromophore upon interaction with avidin; assay type: binding
T1 construct: purchased STC Laboratories (Winnipeg, Canada)
T1 sequence (P02701 25-152): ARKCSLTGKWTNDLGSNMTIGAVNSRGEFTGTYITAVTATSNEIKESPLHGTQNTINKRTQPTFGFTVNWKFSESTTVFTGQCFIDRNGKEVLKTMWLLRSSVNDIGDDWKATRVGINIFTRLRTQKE
Experimental: as §1, §2

[3] = +affinity purified anti-HABA in PBS, (1:1)

Structure (SMILES) | ε[cm^−1M^−1] at λmax ([1]; 0.1 M AcOH) | λmax (nm) ([1]; 0.1 M AcOH) | ε[cm^−1M^−1] at λmax ([1]; PBS) | λmax (nm) ([1]; PBS) | ε[cm^−1M^−1] [2, 3] | λmax (nm) [2, 3] [nm] | ε[cm^−1M^−1] (avidin; +Avidin in PBS, (20:1)) | λmax (nm) (avidin; +Avidin in PBS, (20:1)) | ε500 nm of bound HABA (avidin; at 500 nm, HABA bound to nonlabeled avidin or anti-HABA antibodies) | ε[cm^−1M^−1] at λmax ([1]; 0.1 M NaOH) | λmax (nm) ([1]; 0.1 M NaOH) | ε280 nm ([1]; at 280 nm) | ε[cm^−1M^−1] at λmax ([2]; PBS/anti-HABA) | λmax (nm) ([2]; PBS/anti-HABA) | ε[cm^−1M^−1] at λmax (avidin; PBS/AVIDIN) | λmax (nm) (avidin; PBS/AVIDIN)
O=C(CCc1cc(N=Nc2ccccc2C(=O)O)ccc1O)NCCCCCCNC(=O)ON1C(=O)CCC1=O [Compound 17, 3′-(6-(succinimidyloxycarbonylamino)hexylaminocarbonylethyl)4′-hydroxy-azo-benzene-2-carboxylic acid] | 12,200 cm^−1M^−1 | 356 | – | – | – | – | – | – | – | – | – | – | – | – | – | –
O=C(O)c1ccccc1/N=N/c1ccc(O)cc1 [Compound 0, 4′-hydroxyazobenzene-2-carboxylic acid, reference compound] | – | – | 20,500 cm^−1M^−1 | 350 | 50,000 cm^−1M^−1 | 482 | 35,500 cm^−1M^−1 | 500 | about 30,000 | – | – | – | – | – | – | –
NCCCCCCNC(=O)CCc1cc(N=Nc2ccccc2C(=O)O)ccc1O [Compound 16, 3′-(6-aminohexylaminocarbonylethyl)-4′-hydroxy-azobenzene-2-carboxylic acid] | 12,500 cm^−1M^−1 | 356 | 12,900 cm^−1M^−1 | 356 | – | – | – | – | – | 15,000 cm^−1M^−1 | 420 | 3,300 | 50,000 cm^−1M^−1 | 482 | 30,000 cm^−1M^−1 | 504
